Measured values published in patent US8354419B2, “Benzimidazole analogues for the treatment or prevention of flavivirus infections” (Vertex Pharmaceuticals Incorporated, priority 2009, dated 2013).

System: HCV (Ib) RNA replication
Assay: Cell-based luciferase reporter HCV (1b) RNA replication assay (replicon cell lines Huh-7 5.2 and ET)
Set-up: species or system Hepatitis C virus
Details: Hepatitis C virus, Huh-7, 96 h, HCV 1b genotype replicon, luciferase readout, 4 days incubation; read-out: EC50_1b
In short: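 Compounds were tested at eleven concentrations in duplicate over 4 days at 37 °C, 5% CO2. The cells were luciferase-reporter HCV 1b replicon lines 5.2 (NS5A adaptive mutation) or ET (NS4B mutation). Luminescence of lysates was measured, and IC50s were derived by nonlinear curve fitting.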

| Structure (SMILES) | EC50 [nM] |
| --- | --- |
| COC[C@H](NC(=O)OC)C(=O)N1CCC[C@H]1c1nc2cc(C#Cc3ccc4nc([C@@H]5CCCN5C(=O)[C@H](COC)NC(=O)OC)[nH]c4c3)ccc2[nH]1 [Compound 71] | ≤ 5 |
| COC(=O)N(C)[C@H](C(=O)N1CCC[C@H]1c1nc2cc(CCc3ccc4nc([C@@H]5CCCN5C(=O)[C@H](C(C)C)N(C)C(=O)OC)[nH]c4c3)ccc2[nH]1)C(C)C [Compound 72] | ≤ 5 |
| COC(=O)N[C@@H](C(=O)N1CC[C@H]1c1nc2cc(C#Cc3ccc4[nH]c([C@@H]5CCN5C(=O)[C@H](NC(=O)OC)C(C)C)nc4c3)ccc2[nH]1)C(C)C [Compound 73] | ≤ 5 |
| COC(=O)N[C@H](C(=O)N1CCC[C@H]1c1nc2cc(C#CC#Cc3ccc4nc([C@@H]5CCCN5C(=O)[C@H](NC(=O)OC)C(C)C)[nH]c4c3)ccc2[nH]1)C(C)C [Compound 74] | ≤ 5 |
| O=C(N1CCOCC1)N1CCC[C@H]1c1nc2cc(C#Cc3ccc4[nH]c([C@@H]5CCCN5C(=O)N5CCOCC5)nc4c3)ccc2[nH]1 [Compound 75] | ≤ 5 |
| COC(=O)N[C@H](C(=O)N1CCC[C@H]1c1nc2cc(C#Cc3ccc4nc([C@@H]5CCCN5C(=O)[C@@H](O)C(C)C)[nH]c4c3)ccc2[nH]1)C(C)C [Compound 76] | ≤ 5 |
| COC(=O)N[C@H](C(=O)N1CCC[C@H]1c1nc2cc(C#Cc3ccc4nc([C@@H]5CCCN5C(=O)[C@@H](NC(=O)OC(C)(C)C)C5CCCCC5)[nH]c4c3)ccc2[nH]1)C(C)C [Compound 77] | ≤ 5 |
| COC(=O)N[C@H](C(=O)N1CCC[C@H]1c1nc2cc(C#Cc3ccc4nc([C@@H]5CCCN5C(=O)[C@H](O)C(C)C)[nH]c4c3)ccc2[nH]1)C(C)C [Compound 78] | ≤ 5 |
| C[C@@H](C(=O)N1CCC[C@H]1c1nc2cc(C#Cc3ccc4[nH]c([C@@H]5CCCN5C(=O)[C@H](C)N5CCCC5=O)nc4c3)ccc2[nH]1)N1CCCC1=O [Compound 79] | ≤ 5 |
| O=C1CCCCCN1CC(=O)N1CCC[C@H]1c1nc2cc(C#Cc3ccc4[nH]c([C@@H]5CCCN5C(=O)CN5CCCCCC5=O)nc4c3)ccc2[nH]1 [Compound 80] | > 5000 |
| CC(C)[C@@H](C(=O)N1CCC[C@H]1c1nc2cc(C#Cc3ccc4[nH]c([C@@H]5CCCN5C(=O)[C@H](C(C)C)N5CCCC5=O)nc4c3)ccc2[nH]1)N1CCCC1=O [Compound 81] | ≤ 5 |
| CC(C)[C@@H](NC(=O)O[C@H]1CCOC1)C(=O)N1CCC[C@H]1c1nc2cc(C#Cc3ccc4[nH]c([C@@H]5CCCN5C(=O)[C@H](NC(=O)O[C@H]5CCOC5)C(C)C)nc4c3)ccc2[nH]1 [Compound 82] | 5 to 5000 |
| C[C@H](C(=O)N1CCC[C@H]1c1nc2cc(C#Cc3ccc4[nH]c([C@@H]5CCCN5C(=O)[C@@H](C)N5CCCC5=O)nc4c3)ccc2[nH]1)N1CCCC1=O [Compound 83] | ≤ 5 |
| CC(C)C[C@@H](C(=O)N1CCC[C@H]1c1nc2cc(C#Cc3ccc4[nH]c([C@@H]5CCCN5C(=O)[C@H](CC(C)C)N5CCCC5=O)nc4c3)ccc2[nH]1)N1CCCC1=O [Compound 84] | ≤ 5 |
| CC(C)C(NC(=O)C1CCCCC1)C(=O)N1CCC[C@H]1c1nc2cc(C#Cc3ccc4[nH]c([C@@H]5CCCN5C(=O)C(NC(=O)C5CCCCC5)C(C)C)nc4c3)ccc2[nH]1 (some centres unmarked) [Compound 85] | 5 to 5000 |
| O=C1CC[C@H](C(=O)N2CCC[C@H]2c2nc3cc(C#Cc4ccc5[nH]c([C@@H]6CCCN6C(=O)[C@H]6CCC(=O)N6)nc5c4)ccc3[nH]2)N1 [Compound 86] | > 5000 |
| CC(C)[C@H](NC(=O)[C@@H]1CCC(=O)N1)C(=O)N1CCC[C@H]1c1nc2cc(C#Cc3ccc4[nH]c([C@@H]5CCCN5C(=O)[C@@H](NC(=O)[C@@H]5CCC(=O)N5)C(C)C)nc4c3)ccc2[nH]1 [Compound 87] | > 5000 |
| CC(C)(NC(=O)OCc1ccccc1)C(=O)N1CCC[C@H]1c1nc2cc(C#Cc3ccc4[nH]c([C@@H]5CCCN5C(=O)C(C)(C)NC(=O)OCc5ccccc5)nc4c3)ccc2[nH]1 [Compound 88] | 5 to 5000 |
| CC(C)[C@H](NC(=O)Cc1c[nH]c2ccccc12)C(=O)N1CCC[C@H]1c1nc2cc(C#Cc3ccc4[nH]c([C@@H]5CCCN5C(=O)[C@@H](NC(=O)Cc5c[nH]c6ccccc56)C(C)C)nc4c3)ccc2[nH]1 [Compound 89] | 5 to 5000 |
| COC(=O)N[C@H](C(=O)N1CC(F)(F)C[C@H]1c1nc2cc(C#Cc3ccc4nc([C@@H]5CC(F)(F)CN5C(=O)[C@@H](NC(=O)OC)C(C)C)[nH]c4c3)ccc2[nH]1)C(C)C [Compound 90] | ≤ 5 |
| CC(C)[C@H](NC(=O)N(C)C)C(=O)N1CCC[C@H]1c1nc2cc(C#Cc3ccc4nc([C@@H]5CCCN5C(=O)[C@@H](NC(=O)N(C)C)C(C)C)[nH]c4c3)ccc2[nH]1 [Compound 91] | ≤ 5 |
| CC(C)(C)OC(=O)N1CCCC[C@H]1c1nc2cc(C#Cc3ccc4[nH]c([C@@H]5CCCCN5C(=O)OC(C)(C)C)nc4c3)ccc2[nH]1 [Compound 92] | ≤ 5 |
| COC(=O)NCC(=O)N1CCC[C@H]1c1nc2cc(C#Cc3ccc4nc([C@@H]5CCCN5C(=O)CNC(=O)OC)[nH]c4c3)ccc2[nH]1 [Compound 93] | 5 to 5000 |
| COC(=O)N[C@H](C(=O)N1CCC[C@H]1c1nc2cc(C#Cc3ccc4[nH]c([C@@H]5CCCN5C(=O)[C@@H](NC(=O)OC)C5CC5)nc4c3)ccc2[nH]1)C1CC1 [Compound 94] | 5 to 5000 |

| Structure (SMILES) | EC50 [nM] |
| --- | --- |
| COC(=O)N[C@H](C(=O)N1CCC[C@H]1c1nc2cc(C#Cc3ccc4[nH]c([C@@H]5CCCN5C(=O)[C@@H](NC(=O)OC)C5CCCCC5)nc4c3)ccc2[nH]1)C1CCCCC1 [Compound 95] | ≤ 5 |
| CC(=O)N[C@H](C(=O)N1CCC[C@H]1c1nc2cc(C#Cc3ccc4[nH]c([C@@H]5CCCN5C(=O)[C@@H](NC(C)=O)C(C)C)nc4c3)ccc2[nH]1)C(C)C [Compound 96] | 5 to 5000 |
| CC(=O)N[C@H](C(=O)N1CCC[C@H]1c1nc2cc(C#Cc3ccc4[nH]c([C@@H]5CCCN5C(=O)[C@H](NC(C)=O)C(C)C)nc4c3)ccc2[nH]1)C(C)C [Compound 97] | 5 to 5000 |
| CC(=O)N[C@@H](C(=O)N1CCC[C@@H]1c1nc2cc(C#Cc3ccc4[nH]c([C@H]5CCCN5C(=O)[C@H](NC(C)=O)C(C)C)nc4c3)ccc2[nH]1)C(C)C [Compound 98] | 5 to 5000 |
| O=C([C@H]1C[C@@H](O)CN1)N1CCC[C@H]1c1nc2cc(C#Cc3ccc4[nH]c([C@@H]5CCCN5C(=O)[C@H]5C[C@@H](O)CN5)nc4c3)ccc2[nH]1 [Compound 99] | 5 to 5000 |
| O=C([C@H]1C[C@H](O)CN1)N1CCC[C@H]1c1nc2cc(C#Cc3ccc4[nH]c([C@@H]5CCCN5C(=O)[C@H]5C[C@H](O)CN5)nc4c3)ccc2[nH]1 [Compound 100] | > 5000 |
| CC(C)[C@H](NC(=O)O[C@H]1CCOC1)C(=O)N1CCC[C@H]1c1nc2cc(-c3ccc(-c4ccc5[nH]c([C@@H]6CCCN6C(=O)[C@@H](NC(=O)O[C@H]6CCOC6)C(C)C)nc5c4)s3)ccc2[nH]1 [Compound 101] | 5 to 5000 |
| COC(=O)N[C@@H](C(=O)N1CC[C@H]1c1nc2cc(C#CC#Cc3ccc4[nH]c([C@@H]5CCN5C(=O)[C@H](NC(=O)OC)C(C)C)nc4c3)ccc2[nH]1)C(C)C [Compound 102] | ≤ 5 |
| O=C(CC1CCCCC1)N1CCC[C@H]1c1nc2cc(C#Cc3ccc4[nH]c([C@@H]5CCCN5C(=O)CC5CCCCC5)nc4c3)ccc2[nH]1 [Compound 103] | 5 to 5000 |
| CC[C@@H](NC(C)=O)C(=O)N1CCC[C@H]1c1nc2cc(C#Cc3ccc4[nH]c([C@@H]5CCCN5C(=O)[C@@H](CC)NC(C)=O)nc4c3)ccc2[nH]1 [Compound 104] | 5 to 5000 |
| COCCCC(=O)N1CCC[C@H]1c1nc2cc(C#Cc3ccc4[nH]c([C@@H]5CCCN5C(=O)CCCOC)nc4c3)ccc2[nH]1 [Compound 105] | 5 to 5000 |
| O=C(CC1CCOCC1)N1CCC[C@H]1c1nc2cc(C#Cc3ccc4[nH]c([C@@H]5CCCN5C(=O)CC5CCOCC5)nc4c3)ccc2[nH]1 [Compound 106] | 5 to 5000 |
| CCOCCC(=O)N1CCC[C@H]1c1nc2cc(C#Cc3ccc4[nH]c([C@@H]5CCCN5C(=O)CCOCC)nc4c3)ccc2[nH]1 [Compound 107] | 5 to 5000 |
| O=C(CC1CC1)N1CCC[C@H]1c1nc2cc(C#Cc3ccc4[nH]c([C@@H]5CCCN5C(=O)CC5CC5)nc4c3)ccc2[nH]1 [Compound 108] | 5 to 5000 |
| CCC[C@H](NC(C)=O)C(=O)N1CCC[C@H]1c1nc2cc(C#Cc3ccc4[nH]c([C@@H]5CCCN5C(=O)[C@H](CCC)NC(C)=O)nc4c3)ccc2[nH]1 [Compound 109] | 5 to 5000 |
| CC(=O)NC1(C(=O)N2CCC[C@H]2c2nc3cc(C#Cc4ccc5[nH]c([C@@H]6CCCN6C(=O)C6(NC(C)=O)CC6)nc5c4)ccc3[nH]2)CC1 [Compound 110] | > 5000 |
| CC[C@H](NC(C)=O)C(=O)N1CCC[C@H]1c1nc2cc(C#Cc3ccc4[nH]c([C@@H]5CCCN5C(=O)[C@H](CC)NC(C)=O)nc4c3)ccc2[nH]1 [Compound 111] | 5 to 5000 |
| CC(C)(C)OC(=O)N1CCCC[C@H]1c1nc2cc(-c3ccc(-c4ccc5nc([C@@H]6CCCCN6C(=O)OC(C)(C)C)[nH]c5c4)s3)ccc2[nH]1 [Compound 112] | 5 to 5000 |
| CC(C)(C)OC(=O)N[C@H](CC1CCC1)C(=O)N1CCC[C@H]1c1nc2cc(C#Cc3ccc4[nH]c([C@@H]5CCCN5C(=O)[C@@H](CC5CCC5)NC(=O)OC(C)(C)C)nc4c3)ccc2[nH]1 [Compound 113] | ≤ 5 |
| CC(C)(C)OC(=O)N1CC(F)(F)C[C@H]1C(=O)N1CCC[C@H]1c1nc2cc(C#Cc3ccc4[nH]c([C@@H]5CCCN5C(=O)[C@@H]5CC(F)(F)CN5C(=O)OC(C)(C)C)nc4c3)ccc2[nH]1 [Compound 114] | 5 to 5000 |
| COC(=O)N[C@H](C(=O)N1CCC[C@H]1c1nc2cc(C#Cc3ccc4nc([C@@H]5CCCN5C(=O)[C@@H](NC(=O)OC)C5CCCCC5)[nH]c4c3)ccc2[nH]1)C(C)C [Compound 115] | ≤ 5 |
| COC(=O)N[C@H](C(=O)N1CCC[C@H]1c1nc2cc(CCc3ccc4[nH]c([C@@H]5CCCN5C(=O)[C@H](NC(=O)OC)C(C)C)nc4c3)ccc2[nH]1)C(C)C [Compound 116] | ≤ 5 |
| COC(=O)N[C@H](C(=O)N1CCC[C@H]1c1nc2cc(C#Cc3ccc4nc([C@@H]5CCCN5C(=O)[C@H](C(C)C)N(C)C(=O)OC)[nH]c4c3)ccc2[nH]1)C(C)C [Compound 117] | ≤ 5 |
